Measured values reported in patent US12559492B2, “BRAF degraders” (C4 Therapeutics, Inc., priority 2020, dated 2026).
Where two headings read alike, the source gives them in different places.

Target: BRAF^V600E protein (Homo sapiens, UniProt P15056, V600E)
Test: HiBiT cellular BRAF V600E degradation assay
Format: cell-based
Settings: for DC50: A375.10 cells (HiBiT tag knocked in at N-terminal of BRAF V600E), concentration at which 50% of total cellular BRAF V600E is degraded; for Emax: read-out: HiBit 24 h Emax
[1] = A375.10 cells, 24 h incubation, Emax = amount of residual protein remaining in the cell after compound treatment

Sequence of BRAF^V600E protein (P15056 whole entry V600E): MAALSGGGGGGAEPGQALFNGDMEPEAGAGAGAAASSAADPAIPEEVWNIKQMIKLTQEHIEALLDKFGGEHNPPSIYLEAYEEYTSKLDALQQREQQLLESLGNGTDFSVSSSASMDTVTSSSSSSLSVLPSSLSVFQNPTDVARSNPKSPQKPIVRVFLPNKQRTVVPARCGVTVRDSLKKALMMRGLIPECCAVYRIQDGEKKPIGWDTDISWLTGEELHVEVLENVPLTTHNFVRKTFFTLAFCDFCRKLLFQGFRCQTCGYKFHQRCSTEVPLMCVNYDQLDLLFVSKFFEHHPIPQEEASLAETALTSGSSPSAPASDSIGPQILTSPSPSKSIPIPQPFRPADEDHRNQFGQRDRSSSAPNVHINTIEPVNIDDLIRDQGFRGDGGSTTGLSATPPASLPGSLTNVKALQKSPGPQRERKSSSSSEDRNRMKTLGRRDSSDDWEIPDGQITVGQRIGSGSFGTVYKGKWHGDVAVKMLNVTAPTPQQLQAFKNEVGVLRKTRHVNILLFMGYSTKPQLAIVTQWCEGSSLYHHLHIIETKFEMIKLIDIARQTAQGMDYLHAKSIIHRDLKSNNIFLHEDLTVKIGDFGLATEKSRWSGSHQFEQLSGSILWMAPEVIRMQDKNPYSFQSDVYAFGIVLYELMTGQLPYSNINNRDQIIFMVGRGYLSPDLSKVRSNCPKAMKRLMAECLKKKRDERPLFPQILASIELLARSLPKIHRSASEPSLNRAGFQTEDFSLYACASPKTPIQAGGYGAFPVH

SMILES	DC50 (24 h incubation)	HiBit 24 h Emax [1]	Emax [1]	Emax
CCN(C)S(=O)(=O)Nc1ccc(F)c(C(=O)c2c[nH]c3ncc(-c4ccc(N5CCN(C(=O)CN6CCC(Nc7ccc8c(C9CCC(=O)NC9=O)nn(C)c8c7)CC6)CC5)nc4)cc23)c1F (stereo not drawn) [Example 75, 3-(2,6-dioxo-3-piperidyl)-6-[[1-[2-[4-[5-[3-[3-[[ethyl(methyl)sulfamoyl]amino]-2,6-difluoro-benzoyl]-1H-pyrrolo[2,3-b]pyridin-5-yl]-2-pyridyl]piperazin-1-yl]-2-oxo-ethyl]-4-piperidyl]amino]-1-methyl-indazole]	6.26 nM	–	11.6%	–
CCN(C)S(=O)(=O)Nc1ccc(F)c(C(=O)c2c[nH]c3ncc(-c4ccc(N5CCN(C(=O)CC6(O)CCN(c7ccc(NC8CCC(=O)NC8=O)cn7)CC6)CC5)nc4)cc23)c1F (stereo not drawn) [Example 78, 5-[6-[4-[2-[1-[5-[(2,6-dioxo-3-piperidyl)amino]-2-pyridyl]-4-hydroxy-4-piperidyl]acetyl]piperazin-1-yl]-3-pyridyl]-3-[3-[[ethyl(methyl)sulfamoyl]amino]-2,6-difluoro-benzoyl]-1H-pyrrolo[2,3-b]pyridine]	9.89 nM	–	23.3%	–
CCN(C)S(=O)(=O)Nc1ccc(F)c(C(=O)c2c[nH]c3ncc(-c4ccc(N5CCN(C(=O)CC6(O)CCN(c7ccc(NC8CCC(=O)NC8=O)cc7F)CC6)CC5)nc4)cc23)c1F (stereo not drawn) [Example 79, 5-[6-[4-[2-[1-[4-[(2,6-dioxo-3-piperidyl)amino]-2-fluoro-phenyl]-4-hydroxy-4-piperidyl]acetyl]piperazin-1-yl]-3-pyridyl]-3-[3-[[ethyl(methyl)sulfamoyl]amino]-2,6-difluoro-benzoyl]-1H-pyrrolo[2,3-b]pyridine]	2.13 nM	–	9.51%	–
CCN(C)S(=O)(=O)Nc1ccc(F)c(C(=O)c2c[nH]c3ncc(-c4ccc(N5CCN(C(=O)CC6(O)CCN(c7ncc(NC8CCC(=O)NC8=O)cc7F)CC6)CC5)nc4)cc23)c1F (stereo not drawn) [Example 80, 5-[6-[4-[2-[1-[5-[(2,6-dioxo-3-piperidyl)amino]-3-fluoro-2-pyridyl]-4-hydroxy-4-piperidyl]acetyl]piperazin-1-yl]-3-pyridyl]-3-[3-[[ethyl(methyl)sulfamoyl]amino]-2,6-difluoro-benzoyl]-1H-pyrrolo[2,3-b]pyridine]	2.97 nM	–	9.93%	–
CCN(C)S(=O)(=O)Nc1ccc(F)c(C(=O)c2c[nH]c3ncc(-c4cnc(N5CCN(C(=O)CN6CCC(c7ccc(NC8CCC(=O)NC8=O)cc7)CC6)CC5)c(C#N)c4)cc23)c1F (stereo not drawn) [Example 82, 5-[5-cyano-6-[4-[2-[4-[4-[(2,6-dioxo-3-piperidyl)amino]phenyl]-1-piperidyl]acetyl]piperazin-1-yl]-3-pyridyl]-3-[3-[[ethyl(methyl)sulfamoyl]amino]-2,6-difluoro-benzoyl]-1H-pyrrolo[2,3-b]pyridine]	7.57 nM	–	–	7.6%
CCN(C)S(=O)(=O)Nc1ccc(F)c(C(=O)c2c[nH]c3ncc(-c4ccc(N5CCN(C(=O)CC6(O)CCN(c7ccc(NC8CCC(=O)NC8=O)cc7F)C6)CC5)cc4)cc23)c1F (stereo not drawn) [Example 87, 5-[4-[4-[2-[1-[4-[(2,6-dioxo-3-piperidyl)amino]-2-fluoro-phenyl]-3-hydroxy-pyrrolidin-3-yl]acetyl]piperazin-1-yl]phenyl]-3-[3-[[ethyl(methyl)sulfamoyl]amino]-2,6-difluoro-benzoyl]-1H-pyrrolo[2,3-b]pyridine]	13.3 nM	–	9.64%	–
CCN(C)S(=O)(=O)Nc1ccc(F)c(C(=O)c2c[nH]c3ncc(-c4ccc(N5CCN(C(=O)CC6(O)CCN(c7ccc(NC8CCC(=O)NC8=O)cc7F)CC6)CC5)cc4)cc23)c1F (stereo not drawn) [Example 89, 5-[4-[4-[2-[1-[4-[(2,6-dioxo-3-piperidyl)amino]-2-fluoro-phenyl]-4-hydroxy-4-piperidyl]acetyl]piperazin-1-yl]phenyl]-3-[3-[[ethyl(methyl)sulfamoyl]amino]-2,6-difluoro-benzoyl]-1H-pyrrolo[2,3-b]pyridine]	1.4 nM	–	8.6%	–
CCN(C)S(=O)(=O)Nc1ccc(F)c(C(=O)c2c[nH]c3ncc(-c4ccc(N5CCN(C(=O)CC6(O)CCN(c7ncc(NC8CCC(=O)NC8=O)cc7F)CC6)CC5)cc4)cc23)c1F (stereo not drawn) [Example 90, 5-[4-[4-[2-[1-[5-[(2,6-dioxo-3-piperidyl)amino]-3-fluoro-2-pyridyl]-4-hydroxy-4-piperidyl]acetyl]piperazin-1-yl]phenyl]-3-[3-[[ethyl(methyl)sulfamoyl]amino]-2,6-difluoro-benzoyl]-1H-pyrrolo[2,3-b]pyridine]	2.13 nM	–	7.44%	–

Second part, led by results:

DC50 (24 h incubation)	HiBit 24 h Emax [1]	Emax [1]	SMILES	Emax
12.3 nM	8.05%	–	CCN(C)S(=O)(=O)Nc1ccc(F)c(C(=O)c2c[nH]c3ncc(-c4ccc(N5CCN(C(=O)CN6CCC(c7ccc(O[C@H]8CCC(=O)NC8=O)cc7)CC6)CC5)nc4)cc23)c1F [Example 73, 5-[6-[4-[2-[4-[4-[[(3S)-2,6-dioxo-3-piperidyl]oxy]phenyl]-1-piperidyl]acetyl]piperazin-1-yl]-3-pyridyl]-3-[3-[[ethyl(methyl)sulfamoyl]amino]-2,6-difluoro-benzoyl]-1H-pyrrolo[2,3-b]pyridine]	–
32.5 nM	9.07%	–	CCN(C)S(=O)(=O)Nc1ccc(F)c(C(=O)c2c[nH]c3ncc(-c4ccc(N5CCN(C(=O)CN6CCC(c7ccc(O[C@@H]8CCC(=O)NC8=O)cc7)CC6)CC5)nc4)cc23)c1F [Example 74, 5-[6-[4-[2-[4-[4-[[(3R)-2,6-dioxo-3-piperidyl]oxy]phenyl]-1-piperidyl]acetyl]piperazin-1-yl]-3-pyridyl]-3-[3-[[ethyl(methyl)sulfamoyl]amino]-2,6-difluoro-benzoyl]-1H-pyrrolo[2,3-b]pyridine]	–
7.81 nM	–	14.2%	CCN(C)S(=O)(=O)Nc1ccc(F)c(C(=O)c2c[nH]c3ncc(-c4ccc(N5CCN(C(=O)CC6(O)CCN(c7ccc(NC8CCC(=O)NC8=O)cc7)CC6)CC5)nc4)cc23)c1F (stereo not drawn) [Example 76, 5-[6-[4-[2-[1-[4-[(2,6-dioxo-3-piperidyl)amino]phenyl]-4-hydroxy-4-piperidyl]acetyl]piperazin-1-yl]-3-pyridyl]-3-[3-[[ethyl(methyl)sulfamoyl]amino]-2,6-difluoro-benzoyl]-1H-pyrrolo[2,3-b]pyridine]	–
3.14 nM	9.62%	–	CCN(C)S(=O)(=O)Nc1ccc(F)c(C(=O)c2c[nH]c3ncc(-c4ccc(N5CCN(C(=O)CN6CCC(c7ccc(NC8CCC(=O)NC8=O)cc7)CC6)CC5)cc4)cc23)c1F (stereo not drawn) [Example 84, 5-[4-[4-[2-[4-[4-[(2,6-dioxo-3-piperidyl)amino]phenyl]-1-piperidyl]acetyl]piperazin-1-yl]phenyl]-3-[3-[[ethyl(methyl)sulfamoyl]amino]-2,6-difluoro-benzoyl]-1H-pyrrolo[2,3-b]pyridine]	–
4.29 nM	–	11.8%	CCN(C)S(=O)(=O)Nc1ccc(F)c(C(=O)c2c[nH]c3ncc(-c4ccc(N5CCN(C(=O)CC6(O)CCN(c7ccc(NC8CCC(=O)NC8=O)cc7)CC6)CC5)cc4)cc23)c1F (stereo not drawn) [Example 86, 5-[4-[4-[2-[1-[4-[(2,6-dioxo-3-piperidyl)amino]phenyl]-4-hydroxy-4-piperidyl]acetyl]piperazin-1-yl]phenyl]-3-[3-[[ethyl(methyl)sulfamoyl]amino]-2,6-difluoro-benzoyl]-1H-pyrrolo[2,3-b]pyridine]	–
15.7 nM	–	22.2%	CCN(C)S(=O)(=O)Nc1ccc(F)c(C(=O)c2c[nH]c3ncc(-c4ccc(N5CCN(C(=O)CC6(O)CCN(c7ccc(NC8CCC(=O)NC8=O)cn7)CC6)CC5)cc4)cc23)c1F (stereo not drawn) [Example 88, 5-[4-[4-[2-[1-[5-[(2,6-dioxo-3-piperidyl)amino]-2-pyridyl]-4-hydroxy-4-piperidyl]acetyl]piperazin-1-yl]phenyl]-3-[3-[[ethyl(methyl)sulfamoyl]amino]-2,6-difluoro-benzoyl]-1H-pyrrolo[2,3-b]pyridine]	–
22.9 nM	–	4.78%	CCN(C)S(=O)(=O)Nc1ccc(F)c(C(=O)c2c[nH]c3ncc(-c4ccc(C5=CCN(C(=O)CC6CCN(c7ccc(NC8CCC(=O)NC8=O)cc7)CC6)CC5)cc4)cc23)c1F (stereo not drawn) [Example 92, 5-[4-[1-[2-[1-[4-[(2,6-dioxo-3-piperidyl)amino]phenyl]-4-piperidyl]acetyl]-3,6-dihydro-2H-pyridin-4-yl]phenyl]-3-[3-[[ethyl(methyl)sulfamoyl]amino]-2,6-difluoro-benzoyl]-1H-pyrrolo[2,3-b]pyridine]	–
23.8 nM	–	8.31%	CCN(C)S(=O)(=O)Nc1ccc(F)c(C(=O)c2c[nH]c3ncc(-c4cc(F)c(N5CCN(C(=O)CN6CCC(c7ccc(NC8CCC(=O)NC8=O)cc7)CC6)CC5)c(F)c4)cc23)c1F (stereo not drawn) [Example 93, 5-[4-[4-[2-[4-[4-[(2,6-dioxo-3-piperidyl)amino]phenyl]-1-piperidyl]acetyl]piperazin-1-yl]-3,5-difluoro-phenyl]-3-[3-[[ethyl(methyl)sulfamoyl]amino]-2,6-difluoro-benzoyl]-1H-pyrrolo[2,3-b]pyridine]	–
21.2 nM	–	12.8%	CCN(C)S(=O)(=O)Nc1ccc(F)c(C(=O)c2c[nH]c3ncc(-c4ccc(CN5CCN(CC(=O)N6CCC(c7ccc(NC8CCC(=O)NC8=O)cc7)CC6)CC5)cc4)cc23)c1F (stereo not drawn) [Example 94, 5-[4-[[4-[2-[4-[4-[(2,6-dioxo-3-piperidyl)amino]phenyl]-1-piperidyl]-2-oxo-ethyl]piperazin-1-yl]methyl]phenyl]-3-[3-[[ethyl(methyl)sulfamoyl]amino]-2,6-difluoro-benzoyl]-1H-pyrrolo[2,3-b]pyridine]	–
30.4 nM	–	12.8%	CCN(C)S(=O)(=O)Nc1ccc(F)c(C(=O)c2c[nH]c3ncc(-c4ccc(CN5CCN(C(=O)CN6CCN(c7ccc(NC8CCC(=O)NC8=O)cc7)CC6)CC5)cc4)cc23)c1F (stereo not drawn) [Example 95, 5-[4-[[4-[2-[4-[4-[(2,6-dioxo-3-piperidyl)amino]phenyl]piperazin-1-yl]acetyl]piperazin-1-yl]methyl]phenyl]-3-[3-[[ethyl(methyl)sulfamoyl]amino]-2,6-difluoro-benzoyl]-1H-pyrrolo[2,3-b]pyridine]	–
